In patent US7446199B2, “Compositions useful as inhibitors of protein kinases” (Vertex Pharmaceuticals Incorporated, priority 2003, dated 2008):

What follows are molecules tested against KDR (Homo sapiens, UniProt P35968) (assay: KDR enzyme assay, coupled enzyme assay). Details: 300 μM ATP, 10 μM poly E4Y, 30 nM KDR, 37° C.
Format: biochemical
Method: Compounds were screened for their ability to inhibit KDR using a standard coupled enzyme assay (Fox et al., Protein Sci., (1998) 7, 2249). Assays were carried out in a mixture of 200 mM HEPES 7.5, 10 mM MgCl2, 25 mM NaCl, 1 mM DTT and 1.5% DMSO. Final substrate concentrations in the assay were 300 μM ATP (Sigma Chemicals) and 10 μM poly E4Y (Sigma). Assays were carried out at 37° C. and 30 nM KDR. Final concentrations of the components of the coupled enzyme system were 2.5 mM phosphoenolpyruvate, 200 μM NADH, 30 μg/ML pyruvate kinase and 10 μg/ml lactate dehydrogenase.
An assay stock buffer solution was prepared containing all of the reagents listed above, with the exception of ATP and the test compound of interest. 177 μl of the stock solution was placed in a 96 well plate followed by addition of 3 μl of 2 mM DMSO stock containing the test compound (final compound concentration 30 μM). The plate was preincubated for about 10 minutes at 37° C. and the reaction initiated by addition of 20 μl of ATP (final concentration 300 μM). Rates of reaction were obtained using a Molecular Devices plate reader (Sunnyvale, Calif.) over a 5 minute read time at 37° C.

KDR, sequence (P35968 20-1356): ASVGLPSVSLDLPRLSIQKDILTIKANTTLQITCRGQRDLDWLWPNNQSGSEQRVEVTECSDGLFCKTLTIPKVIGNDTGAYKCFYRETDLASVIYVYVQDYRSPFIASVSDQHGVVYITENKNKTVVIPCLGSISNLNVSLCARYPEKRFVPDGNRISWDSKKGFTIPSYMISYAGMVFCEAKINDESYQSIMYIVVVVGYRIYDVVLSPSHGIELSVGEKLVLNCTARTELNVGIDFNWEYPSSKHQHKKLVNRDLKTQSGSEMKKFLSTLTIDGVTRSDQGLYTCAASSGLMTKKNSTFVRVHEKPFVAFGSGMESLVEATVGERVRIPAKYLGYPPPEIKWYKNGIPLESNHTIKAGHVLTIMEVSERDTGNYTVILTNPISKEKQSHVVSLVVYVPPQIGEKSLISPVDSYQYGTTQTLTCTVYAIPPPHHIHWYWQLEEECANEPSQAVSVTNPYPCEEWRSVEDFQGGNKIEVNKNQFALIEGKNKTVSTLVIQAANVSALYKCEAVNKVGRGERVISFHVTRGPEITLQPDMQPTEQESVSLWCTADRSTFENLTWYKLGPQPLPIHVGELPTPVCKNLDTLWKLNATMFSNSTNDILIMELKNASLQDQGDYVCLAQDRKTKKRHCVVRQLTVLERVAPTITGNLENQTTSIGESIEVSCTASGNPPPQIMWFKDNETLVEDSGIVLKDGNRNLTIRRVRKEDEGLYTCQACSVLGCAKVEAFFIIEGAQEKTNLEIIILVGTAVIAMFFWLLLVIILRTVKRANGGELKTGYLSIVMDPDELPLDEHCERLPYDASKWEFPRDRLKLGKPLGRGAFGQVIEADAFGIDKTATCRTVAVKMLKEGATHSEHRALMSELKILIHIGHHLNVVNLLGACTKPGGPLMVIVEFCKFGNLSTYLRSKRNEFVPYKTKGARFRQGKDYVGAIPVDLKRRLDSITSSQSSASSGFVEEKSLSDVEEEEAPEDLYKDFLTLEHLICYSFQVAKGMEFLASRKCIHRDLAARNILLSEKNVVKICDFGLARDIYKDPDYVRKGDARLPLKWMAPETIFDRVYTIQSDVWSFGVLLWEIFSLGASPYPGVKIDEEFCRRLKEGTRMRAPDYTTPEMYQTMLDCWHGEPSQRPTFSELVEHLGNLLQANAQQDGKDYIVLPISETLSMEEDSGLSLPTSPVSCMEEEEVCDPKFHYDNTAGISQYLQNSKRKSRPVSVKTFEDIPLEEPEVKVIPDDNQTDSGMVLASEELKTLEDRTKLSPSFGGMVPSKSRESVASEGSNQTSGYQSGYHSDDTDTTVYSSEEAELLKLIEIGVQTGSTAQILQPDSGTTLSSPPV

SMILES	Ki [nM]
Fc1cccc(-c2cnoc2-c2c[nH]c3ncc(Br)cc23)c1F [Compound 37, 5-Bromo-3-[4-(2,3-difluoro-phenyl)-isoxazol-5-yl]-1H-pyrrolo[2,3-b]pyridine]	200 to 1000
Fc1ccc(-c2cnoc2-c2c[nH]c3ncccc23)c(F)c1F [Compound 40, 3-[4-(2,3,4-Trifluoro-phenyl)-isoxazol-5-yl]-1H-pyrrolo [2,3-b]pyridine]	200 to 1000
O=c1ccc(-c2cnc3[nH]cc(-c4oncc4-c4cccc(F)c4F)c3c2)c[nH]1 [Compound 67, 5-{3-[4-(2,3-Difluoro-phenyl)-isoxazol-5-yl]-1H-pyrrolo [2,3-b]pyridin-5-yl}-1H-pyridin-2-one]	< 200
CN(C)c1ccc(-c2cnc3[nH]cc(-c4oncc4-c4cccc(F)c4F)c3c2)cc1 [Compound 88, (4-{3-[4-(2,3-Difluoro-phenyl)-isoxazol-5-yl]-1H-pyrrolo[2,3-b]pyridin-5-yl}-phenyl)-dimethyl-amine]	< 200
CS(=O)(=O)n1ccc2cc(-c3cnc4[nH]cc(-c5oncc5-c5cccc(F)c5F)c4c3)cnc21 [Compound 97, 3′-[4-(2,3-Difluoro-phenyl)-isoxazol-5-yl]-1-methanesulfonyl-1H, 1′H-[5,5′]bi[pyrrolo[2,3-b]pyridinyl]]	< 200

Continued, values first:

Ki [nM]	SMILES
200 to 1000	Fc1cccc(-n2cnnc2-c2c[nH]c3ncc(-c4cccnc4)cc23)c1F [Compound 113, 3-[4-(2,3-Difluoro-phenyl)-4H-[1,2,4]triazol-3-yl]-5-pyridin-3-yl-1H-pyrrolo[2,3-b]pyridine]
200 to 1000	Fc1cccc(-n2cnnc2-c2c[nH]c3ncc(-c4ccncc4)cc23)c1F [Compound 114, 3-[4-(2,3-Difluoro-phenyl)-4H-[1,2,4]triazol-3-yl]-5-pyridin-4-yl-1H-pyrrolo[2,3-b]pyridine]
200 to 1000	Cc1noc(-c2c[nH]c3ncc(-c4ccc(N5CCN(C)CC5)cc4)cc23)c1-c1cccc(F)c1F [Compound 135, 3-[4-(2,3-Difluoro-phenyl)-3-methyl-isoxazol-5-yl]-5-[4-(4-methyl-piperazin-1-yl)-phenyl]-1H-pyrrolo[2,3-b]pyridine]
